Data as given in PubChem BioAssay (NCI).
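Values below derive from 48-hour exposures of cells grown in 96-well plates, with endpoints linearly interpolated between the two concentrations bracketing the appropriate inhibition level. TGI: total growth inhibition.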

Columns and labels:
Experiment in all cases: NCI tumour cell line growth inhibition, 48 h
T-47D breast = test system: T-47D breast
BT-549 breast = test system: BT-549 breast
SF-268 CNS = test system: SF-268 CNS
HCT-15 colon = test system: HCT-15 colon
DU-145 prostate = test system: DU-145 prostate
OVCAR-3 ovarian = test system: OVCAR-3 ovarian
SK-MEL-28 melanoma = test system: SK-MEL-28 melanoma
IGROV1 ovarian = test system: IGROV1 ovarian
SF-539 CNS = test system: SF-539 CNS
A549 NSCLC = test system: A549 NSCLC
MDA-MB-231 breast = test system: MDA-MB-231 breast
HCT-116 colon = test system: HCT-116 colon
NCI-H522 lung = test system: NCI-H522 lung
ACHN renal = test system: ACHN renal
SK-MEL-2 melanoma = test system: SK-MEL-2 melanoma
K-562 leukemia = test system: K-562 leukemia
MALME-3M melanoma = test system: MALME-3M melanoma
SR leukemia = test system: SR leukemia
RXF 393 renal = test system: RXF 393 renal
SF-295 CNS = test system: SF-295 CNS
CAKI-1 renal = test system: CAKI-1 renal
CCRF-CEM leukemia = test system: CCRF-CEM leukemia
HOP-62 NSCLC = test system: HOP-62 NSCLC
OVCAR-5 ovarian = test system: OVCAR-5 ovarian
SNB-19 CNS = test system: SNB-19 CNS
PC-3 prostate = test system: PC-3 prostate
TK-10 renal = test system: TK-10 renal
M14 melanoma = test system: M14 melanoma
NCI-H23 lung = test system: NCI-H23 lung
NCI-H460 lung = test system: NCI-H460 lung
SN12C renal = test system: SN12C renal
UACC-62 melanoma = test system: UACC-62 melanoma
SNB-75 CNS = test system: SNB-75 CNS
COLO 205 colon = test system: COLO 205 colon
A498 renal = test system: A498 renal
U251 CNS = test system: U251 CNS
KM12 colon = test system: KM12 colon
HS 578T breast = test system: HS 578T breast
HL-60(TB) leukemia = test system: HL-60(TB) leukemia
MDA-N = test system: MDA-N
SK-MEL-5 melanoma = test system: SK-MEL-5 melanoma
MCF7 breast = test system: MCF7 breast
SW-620 colon = test system: SW-620 colon
SK-OV-3 ovarian = test system: SK-OV-3 ovarian
OVCAR-8 ovarian = test system: OVCAR-8 ovarian
UACC-257 melanoma = test system: UACC-257 melanoma
LOX IMVI melanoma = test system: LOX IMVI melanoma
UO-31 renal = test system: UO-31 renal
HT29 colon = test system: HT29 colon
EKVX NSCLC = test system: EKVX NSCLC
NCI/ADR-RES ovarian = test system: NCI/ADR-RES ovarian
MDA-MB-435 = test system: MDA-MB-435
OVCAR-4 ovarian = test system: OVCAR-4 ovarian
RPMI-8226 leukemia = test system: RPMI-8226 leukemia
HOP-92 NSCLC = test system: HOP-92 NSCLC
HCC-2998 colon = test system: HCC-2998 colon
786-0 renal = test system: 786-0 renal
NCI-H226 lung = test system: NCI-H226 lung
MOLT-4 leukemia = test system: MOLT-4 leukemia

COc1ccc(Oc2nc(C#CC(C)(C)O)nc(Oc3ccc(OC)cc3)n2)cc1
TGI (T-47D breast): > 100 µM | TGI (BT-549 breast): 31.1 µM | TGI (SF-268 CNS): 28.5 µM | TGI (HCT-15 colon): 2.95 µM | TGI (DU-145 prostate): 7.16 µM | TGI (OVCAR-3 ovarian): 4.58 µM | TGI (SK-MEL-28 melanoma): 18.9 µM | TGI (IGROV1 ovarian): 18.9 µM | TGI (SF-539 CNS): 22.5 µM | TGI (A549 NSCLC): 28.4 µM | TGI (MDA-MB-231 breast): 9.93 µM | TGI (HCT-116 colon): > 100 µM | TGI (NCI-H522 lung): 9.36 µM | TGI (ACHN renal): 3.13 µM | TGI (SK-MEL-2 melanoma): 22.8 µM | TGI (K-562 leukemia): > 100 µM | TGI (MALME-3M melanoma): 34.6 µM | TGI (SR leukemia): 3.79 µM | TGI (RXF 393 renal): 2.85 µM | TGI (SF-295 CNS): 31.2 µM | TGI (CAKI-1 renal): 12.5 µM | TGI (CCRF-CEM leukemia): 4.36 µM | TGI (HOP-62 NSCLC): 62.1 µM | TGI (OVCAR-5 ovarian): 16.6 µM | TGI (SNB-19 CNS): 41 µM | TGI (PC-3 prostate): 7.69 µM | TGI (TK-10 renal): 25.5 µM | TGI (M14 melanoma): 4.24 µM | TGI (NCI-H23 lung): 21.8 µM | TGI (NCI-H460 lung): 37.3 µM | TGI (SN12C renal): 28.1 µM | TGI (UACC-62 melanoma): 25 µM | TGI (SNB-75 CNS): 31.3 µM | TGI (COLO 205 colon): 16.9 µM | TGI (A498 renal): 31.6 µM | TGI (U251 CNS): 15.6 µM | TGI (KM12 colon): 29.2 µM | TGI (HS 578T breast): 82.7 µM | TGI (HL-60(TB) leukemia): 3.52 µM | TGI (MDA-N): 21.6 µM | TGI (SK-MEL-5 melanoma): 27.8 µM | TGI (MCF7 breast): 3.15 µM | TGI (SW-620 colon): 3.47 µM | TGI (SK-OV-3 ovarian): 36 µM | TGI (OVCAR-8 ovarian): 13.7 µM | TGI (UACC-257 melanoma): 38.2 µM | TGI (LOX IMVI melanoma): 3 µM | TGI (UO-31 renal): 2.88 µM | TGI (HT29 colon): 10.8 µM | TGI (EKVX NSCLC): 30.7 µM | TGI (NCI/ADR-RES ovarian): 46.8 µM | TGI (MDA-MB-435): 17 µM

Nc1ccc(Oc2ccc(C34CC5CC6C3CC3CC4C(C5)C6(c4ccc(Oc5ccc(N)c(O)c5)cc4)C3)cc2)cc1O
TGI (T-47D breast): > 63.7 µM | TGI (BT-549 breast): 20.9 µM | TGI (SF-268 CNS): 29.2 µM | TGI (HCT-15 colon): 25 µM | TGI (DU-145 prostate): > 43.5 µM | TGI (OVCAR-3 ovarian): 8.28 µM | TGI (SK-MEL-28 melanoma): 23.6 µM | TGI (IGROV1 ovarian): 22.6 µM | TGI (SF-539 CNS): 0.652 µM | TGI (A549 NSCLC): 12.9 µM | TGI (MDA-MB-231 breast): 14.9 µM | TGI (HCT-116 colon): 11.1 µM | TGI (OVCAR-4 ovarian): 22.2 µM | TGI (NCI-H522 lung): 5.73 µM | TGI (ACHN renal): 14.3 µM | TGI (SK-MEL-2 melanoma): 39 µM | TGI (K-562 leukemia): > 54.8 µM | TGI (MALME-3M melanoma): 30.4 µM | TGI (SR leukemia): 8.49 µM | TGI (RXF 393 renal): 27 µM | TGI (SF-295 CNS): 15.3 µM | TGI (CAKI-1 renal): 27.7 µM | TGI (CCRF-CEM leukemia): 40.3 µM | TGI (RPMI-8226 leukemia): 7.94 µM | TGI (HOP-62 NSCLC): 18.3 µM | TGI (HOP-92 NSCLC): 8.41 µM | TGI (OVCAR-5 ovarian): > 39.5 µM | TGI (SNB-19 CNS): 14.7 µM | TGI (PC-3 prostate): 11.9 µM | TGI (TK-10 renal): 19 µM | TGI (M14 melanoma): 8.71 µM | TGI (NCI-H23 lung): 31.2 µM | TGI (NCI-H460 lung): > 36.1 µM | TGI (SN12C renal): 11.4 µM | TGI (UACC-62 melanoma): 26.3 µM | TGI (COLO 205 colon): 2.85 µM | TGI (A498 renal): 20.4 µM | TGI (U251 CNS): 13.6 µM | TGI (KM12 colon): 47.8 µM | TGI (HCC-2998 colon): 7.57 µM | TGI (HS 578T breast): 80.5 µM | TGI (786-0 renal): 14.9 µM | TGI (HL-60(TB) leukemia): 3.27 µM | TGI (NCI-H226 lung): 14.3 µM | TGI (MDA-N): 14.8 µM | TGI (SK-MEL-5 melanoma): 9.24 µM | TGI (MCF7 breast): > 42.3 µM | TGI (SW-620 colon): > 54.8 µM | TGI (SK-OV-3 ovarian): 21.7 µM | TGI (OVCAR-8 ovarian): > 46.7 µM | TGI (UACC-257 melanoma): 34.7 µM | TGI (LOX IMVI melanoma): > 34.9 µM | TGI (UO-31 renal): 11.2 µM | TGI (HT29 colon): > 34.7 µM | TGI (MOLT-4 leukemia): 12.9 µM | TGI (EKVX NSCLC): 22.2 µM | TGI (NCI/ADR-RES ovarian): > 92.8 µM | TGI (MDA-MB-435): 29.3 µM
